Measured values reported in patent publication US20250034094A1, “A FAST AND EFFICIENT PROCESS FOR THE PREPARATION OF N-RETINYLIDENE-N-RETINYLETHANOLAMINE (A2E)” (Purdue Research Foundation, priority 2021, published 2025).

Key:
[1] = HPLC analysis, cited from earlier work
[2] = tested on: ARPE19 cells; test: Cell viability assay (AlamarBlue) of ARPE19 cells treated with A2E lots, with or without inhibitors; type: cell-based; settings: RPE cells, 24 hours in the dark
Description: ARPE19 cells from ATCC were plated at 80% confluency in 96-well plates and pre-treated for 1 hour with inhibitors (33 μM Necrostatin 7 (Cayman Chemicals): 2 mM N-acetyl-cysteine (NAC) (Sigma): 50 μg/ml phoroglucinol (Sigma)), after which the medium was supplemented with A2E/ATRD or vehicle (control) and cells were incubated in serum-free OptiMEM (Invitrogen) medium for an additional 23 hours at 37° C. To assess viability, 20 μL of 10× AlamarBlue® (Invitrogen) were added per well, and cells were incubated for an additional hour before reading the fluorescence in SpectraMax M5e (Molecular Devices, CA, USA) using 555 nm excitation/585 nm emission.

CC(C=CC1=C(C)CCCC1(C)C)=CC=CC(C)=Cc1cc(C=CC=C(C)C=CC2=C(C)CCCC2(C)C)cc[n+]1CCO [A2E, N-retinylidene-N-retinylethanolamine]
stability in THF, CHCl3 or EtOH ([1]; solvents THF, CHCl3 or EtOH): not stable | stability in methanol and DMSO ([1]; solvents methanol and DMSO): stable

CC(C=CC1=C(C)CCCC1(C)C)=CC=CC(C)=Cc1cc(C=CC=C(C)C=CC2=C(C)CCCC2(C)C)cc[n+]1CCO [A2E #3, N-retinylidene-N-retinylethanolamine]
neutralization of A2E toxicity by necroptosis inhibitor Nec7 ([2]; pre-treated with 33 μM Necrostatin 7): better neutralized with the necroptosis inhibitor, Nec7

CC(C=CC1=C(C)CCCC1(C)C)=CC=CC(C)=Cc1cc(C=CC=C(C)C=CC2=C(C)CCCC2(C)C)cc[n+]1CCO [A2E #1, N-retinylidene-N-retinylethanolamine]
protection from A2E-induced toxicity by antioxidants (NAC) ([2]; pre-treated with 2 mM N-acetyl-cysteine): partially protected by antioxidants (NAC)
